According to PMC8964029 (Pharmaceutical Research, 2022):
Like-named read-outs stand apart in the source and are kept apart here.

How the values were obtained:
[1] = assay type: in vivo, human; conditions: for AUC0-24h, ratio of geometric mean (95% CI) / Cmax, ratio of geometric mean (95% CI) / Cmin, ratio of geometric mean (95% CI): erlotinib 75 mg QD + ritonavir 200 mg QD versus erlotinib monotherapy 150 mg QD; for Cmax / Cmin (trough concentration) / AUC0-24h: steady state, geometric mean (CV%)
[2] = healthy volunteers, co-administration of ketoconazole; cited from earlier work
CYP3A4 = conditions: remaining part by CYP1A2; cited from earlier work
[3] = cited from earlier work
[4] = Treatment-related adverse events graded according to CTCAE version 5.0; assay type: in vivo, human; conditions: nine patients
[5] = plasma, erlotinib 75 mg QD + ritonavir 200 mg QD
[6] = plasma, erlotinib monotherapy 150 mg QD
[7] = versus erlotinib monotherapy, result in words
[8] = erlotinib 75 mg QD + ritonavir 200 mg QD
[9] = erlotinib monotherapy 150 mg QD

C#Cc1cccc(Nc2ncnc3cc(OCCO)c(OCCOC)cc23)c1 [OSI-413]
AUC0-24h, ratio of geometric mean (95% CI) [1]: 0.53 (0.34 – 0.83)
Cmax, ratio of geometric mean (95% CI) [1]: 0.48 (0.31 – 0.76)
Cmin, ratio of geometric mean (95% CI) [1]: 0.59 (0.37 – 0.94)
Cmax [1, 5]: 43.7 (134%) ng/mL
Cmin (trough concentration) [1, 5]: 29.4 (263%) ng/mL
AUC0-24h ([1]; plasma, erlotinib 75 mg QD + ritonavir 200 mg QD, nine patients): 0.823 (174%) μg*h/mL
Cmax [1, 6]: 90.0 (107%) ng/mL
Cmin (trough concentration) [1, 6]: 49.5 (152%) ng/mL
AUC0-24h ([1]; plasma, erlotinib monotherapy 150 mg QD, nine patients): 1.55 (120%) μg*h/mL
Change in AUC0-24h following the combination of erlotinib and ritonavir [1, 7]: statistically significant decrease
Change in Cmax following the combination of erlotinib and ritonavir [1, 7]: statistically significant decrease

OSI-420
AUC0-24h, ratio of geometric mean (95% CI) [1]: 0.31 (0.15 – 0.62)
Cmax, ratio of geometric mean (95% CI) [1]: 0.28 (0.13 – 0.57)
Cmin, ratio of geometric mean (95% CI) [1]: 0.41 (0.22 – 0.76)
AUC0-24h [1, 5]: 118 (351%) ng*h/mL
Cmax [1, 5]: 7.24 (230%) ng/mL
Cmin (trough concentration) [1, 5]: 4.34 (443%) ng/mL
AUC0-24h [1, 6]: 380 (144%) ng*h/mL
Cmax [1, 6]: 26.1 (141%) ng/mL
Cmin (trough concentration) [1, 6]: 10.5 (162%) ng/mL
Change in AUC0-24h following the combination of erlotinib and ritonavir [1, 7]: statistically significant decrease
Change in Cmax following the combination of erlotinib and ritonavir [1, 7]: statistically significant decrease
Change in Cmin following the combination of erlotinib and ritonavir [1, 7]: statistically significant decrease

CC(C)c1nc(CN(C)C(=O)N[C@H](C(=O)N[C@@H](Cc2ccccc2)C[C@H](O)[C@H](Cc2ccccc2)NC(=O)OCc2cncs2)C(C)C)cs1 [Ritonavir, ritonavir]
Cmin (trough concentration) [1, 5]: 0.243 (129%) μg/mL

C#Cc1cccc(Nc2ncnc3cc(OCCOC)c(OCCOC)cc23)c1 [Erlotinib, erlotinib]
Increase of AUC0-∞ of erlotinib by ketoconazole [2]: approximately a twofold
Increase of Cmax of erlotinib by ketoconazole [2]: approximately a twofold
Share of erlotinib metabolized by CYP3A4 (CYP3A4): approximately 70%
elimination half-life [3]: approximately 36 h
AUC(0-t) ([1]; human, plasma, oral, 150 mg): 29300 ng·h/mL
Cmin (trough concentration) [1, 5]: 1.06 (165%) μg/mL
Cmin (trough concentration) ([1]; plasma, erlotinib 75 mg QD + ritonavir 200 mg QD, listed as erlotinib): 1.06 µg/mL
Cmax [1, 6]: 1.84 (60%) μg/mL
Cmin (trough concentration) [1, 6]: 1.00 (62%) μg/mL
Patients experiencing treatment-related adverse events ([4]; combination of erlotinib with ritonavir): 56%
Diarrhea grade 1 or 2, number of patients [4, 8]: 2
Diarrhea ≥ grade 3, number of patients [4, 8]: 0
Nausea grade 1 or 2, number of patients [4, 8]: 2
Nausea ≥ grade 3, number of patients [4, 8]: 0
Number of patients experiencing any AE [4, 8]: 5
Skin rash grade 1 or 2, number of patients [4, 8]: 1
Skin rash ≥ grade 3, number of patients [4, 8]: 0
Diarrhea grade 1 or 2, number of patients [4, 9]: 2
Diarrhea ≥ grade 3, number of patients [4, 9]: 0
Nausea grade 1 or 2, number of patients [4, 9]: 0
Nausea ≥ grade 3, number of patients [4, 9]: 0
Number of patients experiencing any AE [4, 9]: 4
Skin rash grade 1 or 2, number of patients [4, 9]: 3
Skin rash ≥ grade 3, number of patients [4, 9]: 0
Patients with a treatment-related adverse event ([4]; monotherapy erlotinib): 44%
